“And” between values parts separate entries of the source, which are not always exact repeats. Equal values may be shown once. Inconclusive results and toxic doses are left out.

The test relates to P388 leukemia ip, CD2F1 mice, survival T/C. Nature of the test: NCI In Vivo Anticancer Drug Screen. Data for tumor model P388 Leukemia (intraperitoneal) in CD2F1 (CDF1) mice. To be noted: endpoint: median survival time, higher = longer survival. The method in brief:
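Mice carrying the transplanted tumor received test compound or vehicle. Survival was recorded in each group, and the value is the treated-group measurement divided by that of the vehicle-treated control group.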

Where [1] appears, read: dose: 100.0 mg/kg/injection, schedule: Q04DX003 (ip), vehicle: saline with Tween-80.
Where [2] appears, read: dose: 200.0 mg/kg/injection, schedule: Q04DX003 (ip), vehicle: saline with Tween-80.
Where [3] appears, read: dose: 400.0 mg/kg/injection, schedule: Q04DX003 (ip), vehicle: saline with Tween-80.
[4] abbreviates: dose: 50.0 mg/kg/injection, schedule: Q01DX005 (ip), vehicle: saline with Tween-80.
Setting [5] is: dose: 100.0 mg/kg/injection, schedule: Q01DX005 (ip), vehicle: saline with Tween-80.
[6] abbreviates: dose: 200.0 mg/kg/injection, schedule: Q01DX005 (ip), vehicle: saline with Tween-80.
Where [7] appears, read: dose: 12.5 mg/kg/injection, schedule: Q01DX009 (ip), vehicle: saline with Tween-80.
Where [8] appears, read: dose: 25.0 mg/kg/injection, schedule: Q01DX009 (ip), vehicle: saline with Tween-80.
The mark [9] stands for this setting: dose: 50.0 mg/kg/injection, schedule: Q01DX009 (ip), vehicle: saline with Tween-80.
The mark [10] stands for this setting: dose: 200.0 mg/kg/injection, schedule: Q01DX009 (ip), vehicle: saline with Tween-80.
Where [11] appears, read: dose: 50.0 mg/kg/injection, schedule: Q01DX009 (ip), vehicle: Klucel (hydroxypropylcellulose) (HPC).
Setting [12] is: dose: 100.0 mg/kg/injection, schedule: Q01DX009 (ip), vehicle: Klucel (hydroxypropylcellulose) (HPC).
[13] abbreviates: dose: 50.0 mg/kg/injection, schedule: Q01DX005 (ip), vehicle: Klucel (hydroxypropylcellulose) (HPC).
Setting [14] is: dose: 100.0 mg/kg/injection, schedule: Q01DX005 (ip), vehicle: Klucel (hydroxypropylcellulose) (HPC).
Setting [15] is: dose: 200.0 mg/kg/injection, schedule: Q01DX005 (ip), vehicle: Klucel (hydroxypropylcellulose) (HPC).
Where [16] appears, read: dose: 100.0 mg/kg/injection, schedule: Q01DX009 (ip), vehicle: saline with Tween-80.
[17] abbreviates: dose: 37.5 mg/kg/injection, schedule: Q01DX009 (ip), vehicle: saline with Tween-80.
The mark [18] stands for this setting: dose: 75.0 mg/kg/injection, schedule: Q01DX009 (ip), vehicle: saline with Tween-80.
[19] abbreviates: dose: 150.0 mg/kg/injection, schedule: Q01DX009 (ip), vehicle: saline with Tween-80.
[20] abbreviates: dose: 50.0 mg/kg/injection, schedule: Q01DX009 (ip), vehicle: saline.
Setting [21] is: dose: 100.0 mg/kg/injection, schedule: Q01DX009 (ip), vehicle: saline.
Setting [22] is: dose: 200.0 mg/kg/injection, schedule: Q01DX009 (ip), vehicle: saline.
Where [23] appears, read: dose: 25.0 mg/kg/injection, schedule: Q01DX009 (ip), vehicle: distilled water + Tween-80.
[24] abbreviates: dose: 50.0 mg/kg/injection, schedule: Q01DX009 (ip), vehicle: distilled water + Tween-80.
Where [25] appears, read: dose: 100.0 mg/kg/injection, schedule: Q01DX009 (ip), vehicle: distilled water + Tween-80.
The mark [26] stands for this setting: dose: 200.0 mg/kg/injection, schedule: Q01DX009 (ip), vehicle: distilled water + Tween-80.

For the compound `Cc1cccc(N2CCN(S(C)(=O)=O)CC2)c1`, the T/C by setting is: under setting [1], 101 % of control; under setting [2], 102 % of control; under setting [3], 110 % of control.

`CN1C(=O)C2SC(=NNc3ccccc3)SC1C(=O)N2C`: the T/C by setting is: under setting [1], 106 % of control; under setting [2], 120 % of control; under setting [3], 100 % of control.

Consider `CCOC(=O)c1ccc2cc(C)c3ccc(N)nc3n2c1=O`, for which the T/C (dose: 25.0 mg/kg/injection, schedule: Q01DX005 (ip), vehicle: saline with Tween-80) is 93 % of control; the T/C under setting [4] was 98 % of control; the T/C under setting [5] is 92 % of control and 93 % of control; the T/C under setting [6] is 88 % of control.

Take `Cc1nc(C(=O)NO)c2ccccc2n1`: the T/C was 102 % of control under setting [7]; 102 % of control under setting [8]; 98 % of control and 97 % of control under setting [9]; 103 % of control under setting [10].

Consider `CCOC(=O)C(CC1=CS(=O)(=O)c2ccc(Cl)cc21)(NC(C)=O)C(=O)OCC`, for which the T/C is 96 % of control under setting [11]; 91 % of control under setting [12]; 87 % of control (dose: 200.0 mg/kg/injection, schedule: Q01DX009 (ip), vehicle: Klucel (hydroxypropylcellulose) (HPC)).

Turning to `COC=C=CC(C)(C)OC`, the T/C was 102 % of control and 110 % of control (dose: 25.0 mg/kg/injection, schedule: Q01DX005 (ip), vehicle: Klucel (hydroxypropylcellulose) (HPC)); 103 % of control and 91 % of control and 95 % of control under setting [13]; 103 % of control and 112 % of control and 121 % of control under setting [14]; 100 % of control and 103 % of control and 114 % of control under setting [15].

In the case of `O=C(O)c1ccc2cc3ccccc3cc2c1`, the T/C runs as follows: under setting [16], 99 % of control; under setting [10], 91 % of control.

With `N/C(=N\O)c1nc2c(N)nc(-c3ccccc3)nc2nc1N`, the T/C by setting is: under setting [17], 109 % of control; under setting [18], 95 % of control; under setting [19], 97 % of control.

As to `Nc1nc(=O)n(C2CC(O)C(O)C(CO)O2)cc1F` (centres undefined), the T/C was 109 % of control under setting [16]; 97 % of control under setting [10]; 93 % of control (dose: 400.0 mg/kg/injection, schedule: Q01DX009 (ip), vehicle: saline with Tween-80).

For `CCCc1cc2c(=O)c(C(=O)OC)c[nH]c2cc1N(CC)CC`, the T/C is 96 % of control under setting [13], 100 % of control under setting [14] and 104 % of control under setting [15].

With `CNC(=O)OCCC(OC(=O)NC)C1CCC2C3CC=C4CC(O)CCC4(C)C3CCC12C` (centres undefined), the T/C is 100 % of control under setting [13], 102 % of control under setting [14] and 97 % of control under setting [15].

Consider `CC1(C)CC(OP(=[Se])(OC2CC(C)(C)N(O)C(C)(C)C2)N2CC2)CC(C)(C)N1O`, for which the T/C by setting is: (dose: 12.5 mg/kg/injection, schedule: Q01DX001 (ip), vehicle: Klucel (hydroxypropylcellulose) (HPC)) 102 % of control; (dose: 25.0 mg/kg/injection, schedule: Q01DX001 (ip), vehicle: Klucel (hydroxypropylcellulose) (HPC)) 105 % of control; (dose: 50.0 mg/kg/injection, schedule: Q01DX001 (ip), vehicle: Klucel (hydroxypropylcellulose) (HPC)) 106 % of control.

On to `COC1C(C(=O)CS(=O)Cc2ccccc2)OC2OC(C)(C)OC21` (centres undefined), for which the T/C runs as follows: (dose: 60.0 mg/kg/injection, schedule: Q01DX005 (ip), vehicle: saline) 104 % of control and 98 % of control; (dose: 120.0 mg/kg/injection, schedule: Q01DX005 (ip), vehicle: saline) 103 % of control; (dose: 240.0 mg/kg/injection, schedule: Q01DX005 (ip), vehicle: saline) 106 % of control and 108 % of control.

Turning to `Cc1cc2c(c(=O)o1)C1=S(SC(c3ccccc3)=C1)S2` (centres undefined), the T/C (dose: 100.0 mg/kg/injection, schedule: Q04DX002 (ip), vehicle: saline with Tween-80) is 90 % of control; the T/C (dose: 200.0 mg/kg/injection, schedule: Q04DX002 (ip), vehicle: saline with Tween-80) was 99 % of control; the T/C (dose: 400.0 mg/kg/injection, schedule: Q04DX002 (ip), vehicle: saline with Tween-80) is 105 % of control.

Regarding `CC(=O)[O][Pb]([O]C(C)=O)([c]1ccccc1)[c]1ccccc1`, the T/C is 121 % of control (dose: 6.25 mg/kg/injection, schedule: Q01DX009 (ip), vehicle: Klucel (hydroxypropylcellulose) (HPC)); 124 % of control (dose: 12.5 mg/kg/injection, schedule: Q01DX009 (ip), vehicle: Klucel (hydroxypropylcellulose) (HPC)); 114 % of control (dose: 17.8 mg/kg/injection, schedule: Q01DX009 (ip), vehicle: saline with Tween-80); 119 % of control (dose: 25.0 mg/kg/injection, schedule: Q01DX009 (ip), vehicle: Klucel (hydroxypropylcellulose) (HPC)); 104 % of control (dose: 30.0 mg/kg/injection, schedule: Q01DX009 (ip), vehicle: Klucel (hydroxypropylcellulose) (HPC)); 123 % of control (dose: 40.0 mg/kg/injection, schedule: Q01DX009 (ip), vehicle: saline with Tween-80). For the same compound, the T/C was 112 % of control (dose: 45.0 mg/kg/injection, schedule: Q01DX009 (ip), vehicle: Klucel (hydroxypropylcellulose) (HPC)); 120 % of control under setting [11]; 107 % of control (dose: 65.0 mg/kg/injection, schedule: Q01DX009 (ip), vehicle: Klucel (hydroxypropylcellulose) (HPC)); 123 % of control under setting [12]; 150 % of control (dose: 150.0 mg/kg/injection, schedule: Q01DX009 (ip), vehicle: Klucel (hydroxypropylcellulose) (HPC)).

In the case of `CCC(=O)c1ccc(Oc2c3ccccc3nc3ccccc23)cc1`, the T/C is 108 % of control under setting [4], 117 % of control under setting [5] and 110 % of control under setting [6].

Take `O=C(Nc1ccc(Cl)c([N+](=O)[O-])c1)Nc1nc2ccccc2s1`: the T/C is, setting by setting: under setting [13], 98 % of control; under setting [14], 86 % of control; under setting [15], 87 % of control.

Regarding `Oc1ccc2c3c1OC1CCCC4[C@H](C2)N(Cc2ccoc2)CC[C@@]314` (some centres undefined), the T/C is, setting by setting: under setting [20], 91 % of control; under setting [21], 98 % of control; under setting [22], 91 % of control.

In the case of `Nc1c(Br)cc2c(c1Br)Cc1cc(Br)ccc1-2`, the T/C was 104 % of control under setting [1], 109 % of control under setting [2] and 90 % of control under setting [3].

Take `COCC(=O)c1ccc(Cl)cc1`: the T/C runs as follows: under setting [20], 105 % of control; under setting [21], 110 % of control and 96 % of control; under setting [22], 105 % of control and 107 % of control.

`CCCCCCC(=O)Oc1ccc[nH]c1=O`: the T/C was 104 % of control under setting [23]; 100 % of control under setting [24]; 97 % of control under setting [25]; 100 % of control under setting [26]; 100 % of control (dose: 400.0 mg/kg/injection, schedule: Q01DX009 (ip), vehicle: distilled water + Tween-80).

Turning to `CCOC(=O)C(C(=O)c1ccccc1)C(C)(C)C` (centres undefined), the T/C was 103 % of control under setting [17], 105 % of control under setting [18] and 112 % of control under setting [19].

For the compound `O=C(Nc1cc(Cl)ccc1Cl)Oc1ccc(Cl)cc1C(=O)c1ccccc1`, the T/C reads like this: under setting [20], 102 % of control; under setting [21], 97 % of control; under setting [22], 89 % of control.

Take `O=C(NNC(=O)c1cccnc1)Nc1cccc(Cl)c1Cl`: the T/C reads like this: under setting [7], 104 % of control; under setting [8], 100 % of control; under setting [9], 95 % of control.

`CCOC(=O)/C(C#N)=C/Nc1cc(C(=O)OCC)cc2c(OC)c(OC)ccc12`: the T/C was 97 % of control (dose: 12.5 mg/kg/injection, schedule: Q01DX009 (ip), vehicle: distilled water + Tween-80); 93 % of control under setting [23]; 106 % of control under setting [24]; 106 % of control under setting [25]; 110 % of control under setting [26].

Values taken from PubChem BioAssay AID330 (DTP/NCI, 2004).
